According to patent US7932251B2, “6-phenyl-1H-imidazo[4,5-c]pyridine-4-carbonitrile derivatives” (priority 2007, dated 2011):

Molecular target: recombinant human Cathepsin S (Homo sapiens, UniProt P25774)
Assay: Cathepsin S assay: inhibition of recombinant human cathepsin S, fluorogenic substrate Z-Val-Val-Arg-AMC
Assay type: biochemical
Description: Cathepsin S Assay Procedure
To a 384 well microtitre plate is added 10 μl of a 100 μM solution of test compound in assay buffer (110 mM sodium acetate pH5.5, 5 mM EDTA, 5 mM dithiothreitol) with 10% dimethylsulfoxide (DMSO), plus 20 μl of 250 μM solution of the substrate
Z-Val-Val-Arg-AMC (7-amido-coumarine derivative of the tripeptide N-benzyloxycarbonyl-Val-Val-Arg-OH) in assay buffer and 45 μl of assay buffer. 25 μl of a 2 mg/l solution of activated recombinant human cathepsin S, in assay buffer, is then added to the well, yielding a final inhibitor concentration of 10 μM. Enzyme activity is determined by measuring the fluorescence of the liberated aminomethylcoumarin at […] using 390 nm excitation, at 20 minutes. Percentage enzyme activity is calculated by comparison of this activity to that of a solution containing no inhibitor.

Sequence of recombinant human Cathepsin S (P25774 115-331): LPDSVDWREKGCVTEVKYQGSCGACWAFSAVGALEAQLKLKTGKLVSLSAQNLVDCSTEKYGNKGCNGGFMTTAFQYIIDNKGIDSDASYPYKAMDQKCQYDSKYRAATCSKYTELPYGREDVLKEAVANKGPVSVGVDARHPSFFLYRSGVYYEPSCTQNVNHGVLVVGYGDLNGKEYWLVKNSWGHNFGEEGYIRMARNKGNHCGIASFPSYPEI

| Structure (SMILES) | IC50 |
| --- | --- |
| Cn1cnc2c(C#N)nc(-c3ccc(OCCCO)c(C(F)(F)F)c3)cc21 [Example 1] | < 100 nM |
| CN(C)CCCOc1ccc(-c2cc3c(ncn3C)c(C#N)n2)cc1C(F)(F)F [Example 2a, 6-[4-(3-Dimethylaminopropoxy)-3-(trifluoromethyl)-phenyl]-1-methyl-1H-imidazo[4,5-g]pyridine-4-carbonitrile] | < 100 nM |
| Cn1cnc2c(C#N)nc(-c3ccc(OCCCN4CCCC4)c(C(F)(F)F)c3)cc21 [Example 2c, 1-Methyl-6-[4-(3-pyrrolidin-1-ylpropoxy)-3-(trifluoromethyl)-phenyl]-1H-imidazo[4,5-c]pyridine-4-carbonitrile] | < 100 nM |
| CCN(CC)CCCOc1ccc(-c2cc3c(ncn3C)c(C#N)n2)cc1C(F)(F)F [Example 2u, 6-[4-(3-N,N-Diethylamino-propoxy)-3-(trifluoromethyl)-phenyl]-1-methyl-1H-imidazo[4,5-d]pyridine-4-carbonitrile] | < 100 nM |
| CN1CCN(CCCOc2ccc(-c3cc4c(ncn4C)c(C#N)n3)cc2C(F)(F)F)CC1(C)C [Example 4a, 1-Methyl-6-{3-(trifluoromethyl)-4-[3-(3,3,4-trimethylpiperazin-1-yl)-propoxy]-phenyl}-1H-imidazo[4,5-c]pyridine-4-carbonitrile] | < 100 nM |
| Cn1cnc2c(C#N)nc(-c3ccc(OCCCN4CCNC(C)(C)C4)c(C(F)(F)F)c3)cc21 [Example 4b, 6-{4-[3-(3,3-Dimethylpiperazin-1-yl)-propoxy]-3-(trifluoromethyl)-phenyl}-1-methyl-1H-imidazo[4,5-c]pyridine-4-carbonitrile] | < 100 nM |
| CN1CCN(CCCOc2ccc(-c3cc4c(ncn4C)c(C#N)n3)cc2C(F)(F)F)CC1 [Example 4e, 1-Methyl-6-{4-[3-(4-methylpiperazin-1-yl)-propoxy]-3-(trifluoromethyl)-phenyl}-1H-imidazo[4,5-c]pyridine-4-carbonitrile] | < 100 nM |
| CCN1CCN(CCCOc2ccc(-c3cc4c(ncn4C)c(C#N)n3)cc2C(F)(F)F)CC1 [Example 4f, 6-{4-[3-(4-Ethylpiperazin-1-yl)-prooxy]-3-(trifluoromethyl)-phenyl}-1-methyl-1H-imidazo[4,5-c]pyridine-4-carbonitrile] | < 100 nM |
| CNC(=O)C1CCN(CCCOc2ccc(-c3cc4c(ncn4C)c(C#N)n3)cc2C(F)(F)F)CC1 [Example 5a, 1-Methyl-6-(4-{3-[4-(N-methylaminocarbonyl)-piperidin-1-yl]-propoxy}-3-(trifluoromethyl)-phenyl)-1H-imidazo[4,5-c]pyridine-4-carbonitrile] | < 100 nM |
| CCc1nccn1CCCOc1ccc(-c2cc3c(ncn3C)c(C#N)n2)cc1C(F)(F)F [Example 7b, 6-{4-[3-(2-Ethyl-imidazol-1-yl)-propoxy]-3-(trifluoromethyl)-phenyl}-1-methyl-1H-imidazo[4,5-c]pyridine-4-carbonitrile] | < 100 nM |
| C[C@@H]1CN(CCOc2ccc(-c3cc4c(ncn4C)c(C#N)n3)cc2C(F)(F)F)C[C@H](C)N1 [Example 9d, 6-{4-[2-(cis-3,5-dimethyl-piperazin-1-yl)-ethoxy]3-(trifluoromethyl)-phenyl}-1-methyl-1H-imidazo[4,5-c]pyridine-4-carbonitrile] | < 100 nM |
| CN1CCC2(CC1)NC(=O)N(CCOc1ccc(-c3cc4c(ncn4C)c(C#N)n3)cc1C(F)(F)F)C2=O [Example 11, 1-Methyl-6-{4-[2-(8-methyl-2,4-dioxo-1,3,8-triaza-spiro[4.5]dec-3-yl)-ethoxy]-3-(trifluoromethyl)-phenyl}-1H-imidazo[4,5-c]pyridine-4-carbonitrile] | < 100 nM |
| Cn1cnc2c(C#N)nc(-c3ccc(OCCN4C(=O)NC5(CCNCC5)C4=O)c(C(F)(F)F)c3)cc21 [Example 12, 6-(4-[2-(2,4-Dioxo-1,3,8-triaza-spiro[4.5]dec-3-yl)-ethoxy]-3-(trifluoromethyl)-phenyl]-1-methyl-1H-imidazo[4,5-c]pyridine-4-carbonitrile] | < 100 nM |
| Cn1cnc2c(C#N)nc(-c3ccc(OCc4ccccn4)c(C(F)(F)F)c3)cc21 [Example 13c, 1-Methyl-6-[4-(pyridin-2-yl-methoxy)-3-(trifluoromethyl)-phenyl]-1H-imidazo[4,5-c]pyridine-4-carbonitrile] | < 100 nM |
| CCN1CCN(CCCOc2ccc(-c3cc4[nH]cnc4c(C#N)n3)cc2C(F)(F)F)CC1 [Example 20f] | < 100 nM |
